Laboratory results reported in US20260217701A1, “SELECTIVE BET INHIBITORS AND USES THEREOF” (Tay Therapeutics Limited, priority 2022, published 2026).

What was measured:
[1] = molecular target: T1, BRD4 BD1 (Homo sapiens, UniProt O60885); experiment: NanoBRET bromodomain assay, NanoLuc-BRD4-BD1 in HEK293 cells; assay type: binding
T1 construct: HEK293 cells were transfected using NanoLuc-BRD4-BD1 or NanoLuc-BRD4-BD2 fusion vectors
Description: Exemplary compounds of the disclosure are active against BRD4 BD2 and selective over BRD4 BD1. BRD4 is a representative example of the BET family, as the binding sites of all BET family members are structurally similar. […] IC50s and fold selectivity's are determined as described below and are represented in Table 1.
(§1) Plates were then incubated at 37° C.+5% CO2 incubator for 2 hours.
(§2) Fold Selectivity Calculated (IC50 BD1/IC50 BD2).

[2] = molecular target: T2, BRD4 BD2 (Homo sapiens, UniProt O60885); experiment: NanoBRET bromodomain assay, NanoLuc-BRD4-BD2 in HEK293 cells; assay type: binding; conditions: for Fold Selectivity BRD4 BD1/BD2: IC50 BD1/IC50 BD2, qualitative if an IC50 is at the upper limit
T2 construct: HEK293 cells were transfected using NanoLuc-BRD4-BD1 or NanoLuc-BRD4-BD2 fusion vectors
Description: as §1, §2

Row | Structure (SMILES) | IC50 [1] | IC50 [2] | Fold Selectivity BRD4 BD1/BD2 [2]
1 | Cc1cccc(C)c1Oc1cn(C)c(=O)cc1-c1cn(C)c(=O)c2[nH]c(-c3cnn(C(F)F)c3)cc12 [Example 12, 2-(1-(difluoromethyl)-1H-pyrazol-4-yl)-4-(5-(2,6-dimethylphenoxy)-1-methyl-2-oxo-1,2-dihydropyridin-4-yl)-6-methyl-1,6-dihydro-7H-pyrrolo[2,3-c]pyridin-7-one] | > 1000 nM | 10 to 50 nM | xxx (Fold >200 and ≤1000)
2 | Cc1cccc(C)c1Oc1cn(C)c(=O)cc1-c1cn(C)c(=O)c2[nH]c(-c3cnn(CC(F)(F)F)c3)cc12 [Example 13, 4-(5-(2,6-dimethylphenoxy)-1-methyl-2-oxo-1,2-dihydropyridin-4-yl)-6-methyl-2-(1-(2,2,2-trifluoroethyl)-1H-pyrazol-4-yl)-1,6-dihydro-7H-pyrrolo[2,3-c]pyridin-7-one] | > 1000 nM | 10 to 50 nM | xxx (Fold >200 and ≤1000)
3 | Cc1cccc(C)c1Oc1cn(C)c(=O)cc1-c1cn(C)c(=O)c2[nH]c(-c3cnn(CCF)c3)cc12 [Example 14, 4-(5-(2,6-dimethylphenoxy)-1-methyl-2-oxo-1,2-dihydropyridin-4-yl)-2-(1-(2-fluoroethyl)-1H-pyrazol-4-yl)-6-methyl-1,6-dihydro-7H-pyrrolo[2,3-c]pyridin-7-one] | 50 to 500 nM | < 10 nM | x (Fold >2 and ≤50)
4 | Cc1cccc(C)c1Oc1cn(C)c(=O)cc1-c1cn(C)c(=O)c2[nH]c(-c3cn(CC(F)(F)F)nc3C)cc12 [Example 15, 4-(5-(2,6-dimethylphenoxy)-1-methyl-2-oxo-1,2-dihydropyridin-4-yl)-6-methyl-2-(3-methyl-1-(2,2,2-trifluoroethyl)-1H-pyrazol-4-yl)-1,6-dihydro-7H-pyrrolo[2,3-c]pyridin-7-one] | 500 to 1000 nM | 10 to 50 nM | xx (Fold >50 and ≤200)
5 | Cc1cccc(C)c1Oc1cn(C)c(=O)cc1-c1cn(C)c(=O)c2[nH]c(-c3cnn(CC(F)(F)F)c3C)cc12 [Example 16, 4-(5-(2,6-dimethylphenoxy)-1-methyl-2-oxo-1,2-dihydropyridin-4-yl)-6-methyl-2-(5-methyl-1-(2,2,2-trifluoroethyl)-1H-pyrazol-4-yl)-1,6-dihydro-7H-pyrrolo[2,3-c]pyridin-7-one] | > 1000 nM | < 10 nM | xx (Fold >50 and ≤200)
6 | Cn1cc(-c2cccc(COC(F)(F)F)c2)c(-c2cn(C)c(=O)c3[nH]c(-c4cnn(C(F)(F)F)c4)cc23)cc1=O [Example 17, 6-methyl-4-(1-methyl-2-oxo-5-(3-((trifluoromethoxy)methyl)phenyl)-1,2-dihydropyridin-4-yl)-2-(1-(trifluoromethyl)-1H-pyrazol-4-yl)-1,6-dihydro-7H-pyrrolo[2,3-c]pyridin-7-one] | > 1000 nM | < 10 nM | xxxx (Fold >1000)
7 | Cn1cc(-c2ccc(COC(F)(F)F)cc2)c(-c2cn(C)c(=O)c3[nH]c(-c4cnn(C(F)(F)F)c4)cc23)cc1=O [Example 18, 6-methyl-4-(1-methyl-2-oxo-5-(4-((trifluoromethoxy)methyl)phenyl)-1,2-dihydropyridin-4-yl)-2-(1-(trifluoromethyl)-1H-pyrazol-4-yl)-1,6-dihydro-7H-pyrrolo[2,3-c]pyridin-7-one] | > 1000 nM | < 10 nM | xxxx (Fold >1000)
8 | CCn1cc(-c2cc(=O)n(C)cc2-c2ccccc2)c2cc(-c3cnn(C(F)(F)F)c3)[nH]c2c1=O [Example 19, 6-ethyl-4-(1-methyl-2-oxo-5-phenyl-1,2-dihydropyridin-4-yl)-2-(1-(trifluoromethyl)-1H-pyrazol-4-yl)-1,6-dihydro-7H-pyrrolo[2,3-c]pyridin-7-one] | > 1000 nM | < 10 nM | xxxx (Fold >1000)
9 | Cc1c(-c2cnn(C(F)(F)F)c2)[nH]c2c(=O)n(C)cc(-c3cc(=O)n(C)cc3-c3ccccc3)c12 [Example 20, 3,6-dimethyl-4-(1-methyl-2-oxo-5-phenyl-1,2-dihydropyridin-4-yl)-2-(1-(trifluoromethyl)-1H-pyrazol-4-yl)-1,6-dihydro-7H-pyrrolo[2,3-c]pyridin-7-one] | > 1000 nM | 10 to 50 nM | xxx (Fold >200 and ≤1000)
10 | Cn1cc(-c2ccccc2)c(-c2cn(C)c(=O)c3[nH]c(-c4cnn(C(F)(F)F)c4)c(F)c23)cc1=O [Example 21, 3-fluoro-6-methyl-4-(1-methyl-2-oxo-5-phenyl-1,2-dihydropyridin-4-yl)-2-(1-(trifluoromethyl)-1H-pyrazol-4-yl)-1,6-dihydro-7H-pyrrolo[2,3-c]pyridin-7-one] | > 1000 nM | < 10 nM | xxxx (Fold >1000)
11 | Cn1cc(-c2cc(=O)n(CCOC(F)F)cc2-c2ccccc2)c2cc(-c3cnn(C(F)(F)F)c3)[nH]c2c1=O [Example 22, 4-(1-(2-(difluoromethoxy)ethyl)-2-oxo-5-phenyl-1,2-dihydropyridin-4-yl)-6-methyl-2-(1-(trifluoromethyl)-1H-pyrazol-4-yl)-1,6-dihydro-7H-pyrrolo[2,3-c]pyridin-7-one] | > 1000 nM | < 10 nM | xxxx (Fold >1000)
12 | CSCCn1cc(-c2ccccc2)c(-c2cn(C)c(=O)c3[nH]c(-c4cnn(C(F)(F)F)c4)cc23)cc1=O [Example 23, 6-methyl-4-(1-(2-(methylthio)ethyl)-2-oxo-5-phenyl-1,2-dihydropyridin-4-yl)-2-(1-(trifluoromethyl)-1H-pyrazol-4-yl)-1,6-dihydro-7H-pyrrolo[2,3-c]pyridin-7-one] | > 1000 nM | < 10 nM | xxxx (Fold >1000)
13 | CSCc1ccc(-c2cn(C)c(=O)cc2-c2cn(C)c(=O)c3[nH]c(-c4cnn(C(F)(F)F)c4)cc23)cc1 [Example 24, 6-methyl-4-(1-methyl-5-(4-((methylthio)methyl)phenyl)-2-oxo-1,2-dihydropyridin-4-yl)-2-(1-(trifluoromethyl)-1H-pyrazol-4-yl)-1,6-dihydro-7H-pyrrolo[2,3-c]pyridin-7-one] | > 1000 nM | < 10 nM | xxxx (Fold >1000)
14 | CSCc1cccc(-c2cn(C)c(=O)cc2-c2cn(C)c(=O)c3[nH]c(-c4cnn(C(F)(F)F)c4)cc23)c1 [Example 25, 6-methyl-4-(1-methyl-5-(3-((methylthio)methyl)phenyl)-2-oxo-1,2-dihydropyridin-4-yl)-2-(1-(trifluoromethyl)-1H-pyrazol-4-yl)-1,6-dihydro-7H-pyrrolo[2,3-c]pyridin-7-one] | > 1000 nM | < 10 nM | xxxx (Fold >1000)
15 | Cc1cc(-c2cc3c(-c4cc(=O)n(C)cc4-c4ccccc4F)cn(C)c(=O)c3[nH]2)cc(C)n1.Cl [Example 26, 2-(2,6-dimethylpyridin-4-yl)-4-(5-(2-fluorophenyl)-1-methyl-2-oxo-1,2-dihydropyridin-4-yl)-6-methyl-1,6-dihydro-7H-pyrrolo[2,3-c]pyridin-7-one hydrogen chloride] | 500 to 1000 nM | < 10 nM | xxx (Fold >200 and ≤1000)
16 | Cc1cc(-c2cc3c(-c4cc(=O)n(C)cc4-c4ccccc4C)cn(C)c(=O)c3[nH]2)cc(C)n1.Cl [Example 27, 2-(2,6-dimethylpyridin-4-yl)-6-methyl-4-(1-methyl-2-oxo-5-(o-tolyl)-1,2-dihydropyridin-4-yl)-1,6-dihydro-7H-pyrrolo[2,3-c]pyridin-7-one hydrochloride] | > 1000 nM | 10 to 50 nM | xxx (Fold >200 and ≤1000)
17 | Cc1cc(-c2cc3c(-c4cc(=O)n(C5CC5)cc4-c4ccccc4)cn(C)c(=O)c3[nH]2)cc(C)n1.Cl [Example 28, 4-(1-cyclopropyl-2-oxo-5-phenyl-1,2-dihydropyridin-4-yl)-2-(2,6-dimethylpyridin-4-yl)-6-methyl-1,6-dihydro-7H-pyrrolo[2,3-c]pyridin-7-one hydrogen chloride] | > 1000 nM | < 10 nM | xxxx (Fold >1000)
18 | Cc1cc(-c2cc3c(-c4cc(=O)n(C)cc4-c4ccc(C#N)cc4)cn(C)c(=O)c3[nH]2)cc(C)n1.Cl [Example 29, 4-(4-(2-(2,6-dimethylpyridin-4-yl)-6-methyl-7-oxo-6,7-dihydro-1H-pyrrolo[2,3-c]pyridin-4-yl)-1-methyl-6-oxo-1,6-dihydropyridin-3-yl)benzonitrile hydrogen chloride] | > 1000 nM | 10 to 50 nM | xxx (Fold >200 and ≤1000)
19 | Cc1cc(-c2cc3c(-c4cc(=O)n(C)cc4-c4ccc(F)cc4)cn(C)c(=O)c3[nH]2)cc(C)n1.Cl [Example 30, 2-(2,6-dimethylpyridin-4-yl)-4-(5-(4-fluorophenyl)-1-methyl-2-oxo-1,2-dihydropyridin-4-yl)-6-methyl-1,6-dihydro-7H-pyrrolo[2,3-c]pyridin-7-one hydrochloride] | > 1000 nM | < 10 nM | xxxx (Fold >1000)
20 | COc1ccc(-c2cn(C)c(=O)cc2-c2cn(C)c(=O)c3[nH]c(-c4cc(C)nc(C)c4)cc23)cc1.Cl [Example 31, 2-(2,6-dimethylpyridin-4-yl)-4-(5-(4-methoxyphenyl)-1-methyl-2-ox0-1,2-dihydropyridin-4-yl)-6-methyl-1,6-dihydro-7H-pyrrolo[2,3-c]pyridin-7-one hydrogen chloride] | 500 to 1000 nM | < 10 nM | xxx (Fold >200 and ≤1000)
